Results from ChEMBL document CHEMBL1135600, “Novel tricyclic-alpha-alkyloxyphenylpropionic acids: dual PPARalpha/gamma agonists with hypolipidemic and antidiabetic activity” (J Med Chem, 2002).
Where “and” joins values, the source holds several entries; their conditions need not be identical. Equal values may be shown once. Calls of active or inactive are those of the source. The calls are words filed in the database; no cut-off is given here.

What was measured:
[1] = molecular target: T1, Peroxisome proliferator-activated receptor alpha (Homo sapiens, UniProt Q07869); experiment: In vitro transactivation using receptor transactivation assay against hPPAR alpha; format: functional
T1 sequence (Q07869 whole entry): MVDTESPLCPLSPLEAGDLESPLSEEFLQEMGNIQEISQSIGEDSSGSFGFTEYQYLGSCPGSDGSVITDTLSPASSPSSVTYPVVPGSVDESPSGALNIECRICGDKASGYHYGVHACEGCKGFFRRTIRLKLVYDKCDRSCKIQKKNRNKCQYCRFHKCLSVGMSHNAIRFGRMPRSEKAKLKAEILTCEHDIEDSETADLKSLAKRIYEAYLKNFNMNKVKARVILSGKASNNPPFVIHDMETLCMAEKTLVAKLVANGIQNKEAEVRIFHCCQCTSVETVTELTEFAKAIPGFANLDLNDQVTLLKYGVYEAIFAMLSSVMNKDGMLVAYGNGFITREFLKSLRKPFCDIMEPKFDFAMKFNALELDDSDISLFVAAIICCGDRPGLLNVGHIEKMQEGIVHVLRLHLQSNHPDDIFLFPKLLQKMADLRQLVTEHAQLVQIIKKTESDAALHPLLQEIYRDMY

[2] = molecular target: T2, Peroxisome proliferator-activated receptor gamma (Homo sapiens, UniProt P37231)
T2 sequence (P37231 whole entry): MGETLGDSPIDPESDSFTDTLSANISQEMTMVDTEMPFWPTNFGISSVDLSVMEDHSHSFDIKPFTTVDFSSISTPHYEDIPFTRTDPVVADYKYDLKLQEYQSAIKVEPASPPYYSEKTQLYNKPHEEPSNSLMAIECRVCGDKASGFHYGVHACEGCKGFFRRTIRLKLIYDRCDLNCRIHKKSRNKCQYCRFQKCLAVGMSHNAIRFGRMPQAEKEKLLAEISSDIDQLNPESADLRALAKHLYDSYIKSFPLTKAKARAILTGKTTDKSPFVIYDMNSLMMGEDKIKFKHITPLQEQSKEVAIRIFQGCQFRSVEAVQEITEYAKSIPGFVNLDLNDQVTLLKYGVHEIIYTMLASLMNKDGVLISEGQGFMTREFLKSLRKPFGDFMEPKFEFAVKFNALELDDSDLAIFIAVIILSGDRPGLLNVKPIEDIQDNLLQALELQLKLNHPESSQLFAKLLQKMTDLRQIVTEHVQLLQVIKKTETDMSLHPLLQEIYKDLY
Description: In vitro transactivation using receptor transactivation assay against hPPAR gamma

[3] = species: Mus musculus; experiment: Maximum achieved insulin reduction relative to vehicle treated control group; format: functional
[4] = Oral half life was reported in rat; format: ADME, organism-based; conditions: in vivo
[5] = Clearance after oral administration in rat; format: ADME, organism-based; conditions: in vivo
[6] = species: Mus musculus; experiment: Maximum achieved triglycerides reduction relative to vehicle treated control group; format: functional
[7] = Maximum plasma concentration after oral administration at a dose 2.2 mg/kg in rat; format: ADME, organism-based; set-up: dose 2.2 mg/kg, route oral
[8] = species: Mus musculus; experiment: Effective dose which produces the desired nonfasting insuline levels after 7 days in 50% of the treated male db/db mice.; format: functional; conditions: 168 h
[9] = species: Mus musculus; experiment: Effective dose which produces the desired nonfasting triglyceride levels after 7 days in 50% of the treated male db/db mice.; format: functional; conditions: 168 h
[10] = Area under blood glucose time curve after OGTT on the 9th day of treatment; format: ADME, tissue-based
[11] = Volume of distribution during steady state in rat; format: ADME, organism-based; conditions: in vivo, read-out: Vss
[12] = Area under plasma concentration time curve after oral administration at a dose 2.2 mg/kg in rat; format: ADME, organism-based; set-up: dose 2.2 mg/kg, route oral
[13] = Oral bioavailability in rat; format: ADME, organism-based; conditions: in vivo
[14] = species: Mus musculus; experiment: Effective dose which produces the desired nonfasting blood glucose levels after 7 days in 50% of the treated mice.; format: functional; conditions: 168 h
[15] = species: Mus musculus; experiment: Minimum concentration which produces the desired nonfasting triglyceride levels after 7 days in 50% of the treated male db/db mice.; format: functional; conditions: 168 h
[16] = species: Mus musculus; experiment: Maximum achieved insulin reduction relative to vehicle treated control group; NE is Not Effective.; format: functional, organism-based
[17] = species: Mus musculus; experiment: Minimum concentration which produces the desired nonfasting blood glucose levels after 7 days in 50% of the treated mice.; format: functional; conditions: 168 h
[18] = species: Mus musculus; experiment: Maximum achieved blood glucose reduction relative to vehicle treated control group; format: functional

Row | SMILES | EC50 [1] [µM] | EC50 [2] [µM] | CL/F [5] [mL/min/kg] | Max reduction [6] [%] | Cmax [7] [ng/mL] | AUC ED50 [10] [mg/kg] | Vd [11] [L/kg] | bioavailability [13] [%] | also measured
1 | CCOC(Cc1ccc(OCC=C2c3ccccc3-c3ccccc32)cc1)C(=O)O (centres undefined) | 12.5 | 12.1 | – | – | – | – | – | – | –
2 | CCO[C@@H](Cc1ccc(OCCn2c3ccccc3c3cc(Br)ccc32)cc1)C(=O)O | 2.4 | 0.33 | – | – | – | – | – | – | –
3 | CCO[C@@H](Cc1ccc(OCCn2c3ccccc3c3ccncc32)cc1)C(=O)O | 0.14 | 0.011 | 12.7 | 50 | 527 | 3.32 | 0.88 | 61 | Max reduction [3]: 77%; half-life [4]: 2.7 h; ED50 [8]: 7.74 mg/kg; ED50 [9]: 2.68 mg/kg; AUC [12]: 1330 ng·h/mL; ED50 [14]: 0.33 mg/kg
4 | CCOC(Cc1ccc(OCCCN2c3ccccc3OCOc3ccccc32)cc1)C(=O)O (centres undefined) | 1.2 | 1.2 | 13.7 | 13 | 730 | 6.57 | 0.76 | 63 | ED50 [15]: 18.3 mg/kg; NE [16]: inactive; ED50 [17]: 8.11 mg/kg; Max reduction [18]: 17% and 20%
5 | CCOC(Cc1ccc(OCCN2c3ccccc3C=Cc3ccccc32)cc1)C(=O)O (centres undefined) | 9.5 | 0.76 | – | – | – | – | – | – | –
6 | CCOC(Cc1ccc(OCCC2c3ccccc3Oc3ccccc32)cc1)C(=O)O (centres undefined) | 9.6 | 0.46 | – | – | – | – | – | – | –
